Laboratory results from patent publication US9707239B2, “Compounds that modulate oxidative stress” (vTv Therapeutics LLC, priority 2011, dated 2017).
“Also recorded” adds a separate entry of the source.

Columns and labels:
HMOX1 [1] = assay: Effect of NAC on compound induction of HMOX gene expression; format: cell-based, human; conditions: NHLF cells pretreated with 5 mM NAC 1 hr, compound 6 h, FIG. 4
Experimental: NHLF cells were grown to 80% confluency and harvested by washing once with HEPES and then trypsinizing. Equal numbers (7×10^4 cells per well) of NHLF cells were plated in 96 well tissue culture (Corning) plates. Cells were incubated overnight in FGM-2 medium prior to exposure to compound. Cells were pretreated with 5 mM N-acetyl cysteine for 1 hr. Cells were treated with either DMSO or compound for 6 h. Preparation of cell lysates was carried out according to Quantigene Reagent system 2.0 protocol (Panomics). Heme oxygenase mRNA induction was detected from cell lysate using the Quantigene Plex 2.0 Assay Kit (Panomics) on the Luminex platform (BIO-RAD). Expression of GAPDH mRNA was used as the internal control for the Quantigen Plex 2.0 Assay. Heme oxygenase data represents the fold change, normalized to control values, above DMSO treated cells.
A further test of the hypothesis that Compound 13 induces HMOX1 with minimal alteration of cellular redox levels or chemical reactivity was carried out by treating cells with N-acetyl cysteine (NAC). This compound acts to restore cellular glutathione levels and thus prevent oxidative stress. The degree to which NAC can suppress HMOX1 induction is an indicator of the amount of chemical reactivity or ROS stress that a compound is imposing on the cell and thus activating phase II gene transcription. […] Coupled with the data shown in FIG. 3, it is concluded that Compound 13 induces HMOX1 with minimal elevation of ROS or NAC-sensitive chemical reactivity.

NHLF cells [2] = assay: ROS measurements (H2DCF-DA imaging); format: cell-based, human; conditions: 1 hr; for elevation of ROS production: relative to untreated controls, FIG. 3A; for ROS production (in words): cell-by-cell imaging, FIG. 3A/3B
Experimental: Secondary growth of NHLF cells were used for all assays. Cells were cultured as above. Cells were plated into 384-well BD-Optilux Plates at 2,000 cells/well and cultured overnight at 37° C. and 5% CO2. The following day, cell were washed and 2,7-dihydrodichlorofluorescin diacetate (H2DCF-DA), 10 μM ferric ammonium citrate (FAC), and Hoechst stain were added to cells for 30 min. The cells were washed once with PBS to remove any H2DCF-DA not taken up by cells. Test compounds were prepared in FBM-2 media at the desired concentrations. The plates and stain-treated cells were incubated with test compounds for 1 hr at 37° C. and 5% CO2. Following the incubation period, ROS generation was determined by imaging the cells on a GE INcell 1000 imager (Hoechst Ex. 360 Em. 535; H2DCF-DA 488 Ex. 480 Em. 535). ROS levels were determined and quantified using GE IN Cell Analyzer Software.
In addition to gene profiling, the requirement for ROS generation or chemical reactivity was tested. ROS generation was measured using an automated imaging technique. Compound 13 as well as two other compounds that were found in the screening set were tested in this experiment. Untreated NHLF cells, NHLF cells treated with the HMOX1 inducer CoPP (a negative control), and NHLF cells treated with curcumin or celestrol (positive controls) were included as controls. […] Further experiments were also conducted on chemical derivatives of Compound 13. In those experiments, all compounds tested were found not to induce an elevation of ROS levels in the cell (FIG. 3B). Thus, Compound 13 and related compounds represent a class of agents that elevate HMOX1 production without elevating ROS production.

NHLF cells [3] = assay: Cytoprotection of cisplatin (CDDP)-treated NHLF cells (propidium iodide staining); format: cell-based
Experimental: (§1) A key outcome of Bach1 derepression and Nrf2 activation are the induction of cytoprotective genes. A method to test such cytoprotection is to assess the ability of a compound to protect normal human cells such as lung fibroblasts from toxicity due to cisplatin exposure. A model of cellular cytoprotection was established whereby normal human lung fibroblasts were treated with Bach1 modulators and then subsequently exposed to cisplatin. NHLF cells are very sensitive to cisplatin exposure; following a dose of 200 uM cisplatin, >90% of NHLF cells are propidium iodide positive, a measure of cell death.

Keap1 = assay: HMOX1 induction after Keap1 silencing (shRNA); format: cell-based, human; conditions: NHLF cells, FIG. 6
Experimental: Normal human lung fibroblasts were plated in a 12-well tissue culture dish at 16,000 cells/well and allowed to attach overnight. Regular medium was then replaced with 200 μl of fresh growth medium containing 8 μg/ml hexadimethrine bromide (polybrene). Lentiviral transduction particles were then added in the following amounts: Control shRNA (1.1×10^7 TU/ml, Sigma, cat# SHC002V), 15 μl for an MOI of 10; KEAP-1 shRNA (6.3×10^6 TU/ml, Sigma, cat# SHCLNV-TRCN0000046092), 63 μl for an MOI of 20. After 4 hours in the cell culture incubator, another 200 μl of growth medium was added on top of the original volume. Cells were replenished the next day with fresh complete growth medium and were allowed to recover for 24 hours, after which selection medium was applied (complete medium with 1 μg/ml puromycin).
Another method of testing the role of the Nrf2 regulatory pathway on compound activity is to determine the effect of silencing Keap1 on HMOX1 gene expression. It is known that deleting Keap1 will result in the induction of Nrf2 dependent genes but not, to any significant degree, HMOX1. The proposed explanation for this observation is that HMOX1 requires the concomitant derepression of Bach1 activity and that this event is more dependent on active processes (e.g., heme binding, changes in redox potential of the cell, phosphorylation of Bach1, etc.). We therefore tested the ability of Compound 13 and tool compounds to induce HMOX1 in the presence of silencing of Keap1 in normal human lung fibroblasts.
Normal human lung fibroblasts were tested with DMSO, CoPP, Compound 13, and two derivatives including Compound 4 and Compound 8. An electrophile, Compound 1, was also included in the test set. […] On the other hand, induction of HMOX1 by the electrophile Compound 1 was inhibited.

NQO1 = assay: mRNA expression (Quantigene Plex) in NHLF cells: NQO1; format: cell-based, human; conditions: Table 6, 6 h, mRNA normalized to GAPDH, above DMSO treated cells
Experimental: (§2) Secondary growth of NHLF cells were used for all assays. Cell were thawed and then placed into culture in T225 flasks. The cells were grown to 80% confluency and harvested by washing once with HEPES buffered saline solution and then trypsinizing. Equal numbers (7×10^3 cells per well) of NHLF cells were plated in 96 well tissue culture plates (Corning). Cells were incubated overnight in FGM-2 medium prior to exposure to compound. Cells were treated with either DMSO or a compound as described below for 6 h. Preparation of cell lysates was carried out according to instructions using the Quantigene Reagent system 2.0 protocol (Panomics). mRNA induction was detected from cell lysate using the Quantigene Plex 2.0 Assay Kit (Panomics) on the Luminex platform (BIO-RAD). Expression of GAPDH mRNA was used as the internal control for the Quantigen Plex 2.0 Assay. The data in Tables 5 and 6 represents the fold change of target mRNA expression, normalized to control values, above DMSO treated cells.

TXNRD1 = assay: mRNA expression (Quantigene Plex) in NHLF cells: TXNRD1; format: cell-based, human; conditions: Table 6, 6 h, mRNA normalized to GAPDH, above DMSO treated cells
Experimental: as §2

HSPA6 = assay: mRNA expression (Quantigene Plex) in NHLF cells: HSPA6; format: cell-based, human; conditions: Table 6, 6 h, mRNA normalized to GAPDH, above DMSO treated cells
Experimental: as §2

GADD45A = assay: mRNA expression (Quantigene Plex) in NHLF cells: GADD45A; format: cell-based, human; conditions: Table 6, 6 h, mRNA normalized to GAPDH, above DMSO treated cells
Experimental: as §2

ICAM = assay: mRNA expression (Quantigene Plex) in NHLF cells: ICAM; format: cell-based, human; conditions: Table 6, 6 h, mRNA normalized to GAPDH, above DMSO treated cells
Experimental: as §2

HMOX1 [4] = assay: mRNA expression (Quantigene Plex) in NHLF cells: HMOX1; format: cell-based, human; conditions: Table 6, 6 h, mRNA normalized to GAPDH, above DMSO treated cells
Experimental: as §2

HMOX1 [5] = assay: HMOX1 induction in NHLF cells in the cisplatin cytoprotection model; format: cell-based, human; conditions: compound 24 hours prior to cisplatin, FIG. 8
Experimental: as §1

Compound | NQO1 (fold induction) (NQO1) | TXNRD1 (fold induction) (TXNRD1) | HSPA6 (fold induction) (HSPA6) | ROS production (in words) (NHLF cells [2]) | GADD45A (fold induction) (GADD45A) | ICAM1 (fold induction) (ICAM) | HMOX1 (fold induction) (HMOX1 [4]) | other results
CC1=C(O)C(=O)C=C2C1=CC=C1[C@@]2(C)CC[C@@]2(C)[C@@H]3C[C@](C)(C(=O)O)CC[C@]3(C)CC[C@]12C [celestrol, reference compound] | – | – | – | – | – | – | – | effect of N-acetyl cysteine (NAC) on HMOX1 induction (HMOX1 [1]): inhibited nearly fully by NAC; also recorded: fully suppressed in the presence of NAC; elevation of ROS production (NHLF cells [2]): ~2 fold
N.N.[Cl][Pt][Cl] [cisplatin, reference compound] | – | – | – | – | – | – | – | NHLF cells propidium iodide positive (cell death) (NHLF cells [3]; 200 uM cisplatin): > 90%
CCOC(=O)/C=C/c1cnc2ccccc2c1S(=O)(=O)C1CCOC1C (stereo not drawn) [Compound 1, (E)-3-[4-(2-Methyl-tetrahydro-furan-3-sulfonyl)-quinolin-3-yl]-acrylic acid ethyl ester] | – | – | – | – | – | – | – | HMOX1 induction in the presence of Keap1 silencing (Keap1): inhibited
COC(=O)[C@]12CCC(C)(C)CC1C1C(=O)C=C3[C@@]4(C)CC(C#N)C(=O)C(C)(C)[C@@H]4CC[C@@]3(C)[C@]1(C)CC2 (stereo partly drawn) [Compound 5, (4aS,6aR,6bS,8aR,12aS)-11-Cyano-2,2,6a,6b,9,9,12a-heptamethyl-10,14-dioxo-1,3,4,5,6,6a,6b,7,8,8a,9,10,11,12,12a,14, 14a,14b-octadecahydro-2H-picene-4a-carboxylic acid methyl ester, reference compound] | 2.01 fold induction | 1.83 fold induction | 1.60 fold induction | no demonstrable increase in ROS production | 0.89 fold induction | 1.16 fold induction | 23.97 fold induction | –
COc1cc(/C=C/C(=O)CC(=O)/C=C/c2ccc(O)c(OC)c2)ccc1O [curcumin, reference compound] | – | – | – | – | – | – | – | effect of N-acetyl cysteine (NAC) on HMOX1 induction (HMOX1 [1]): inhibited nearly fully by NAC; also recorded: fully suppressed in the presence of NAC; elevation of ROS production (NHLF cells [2]): approximately 3 fold
Cc1nc(Nc2nc3cc(C(=O)NCCOCCN)ccc3[nH]2)sc1C [Compound 11, 2-(4,5-Dimethyl-thiazol-2-ylamino)-1H-benzoimidazole-5-carboxylic acid [2-(2-amino-ethoxy)-ethyl]-amide] | – | – | – | – | – | – | – | protection against cisplatin toxicity (NHLF cells [3]; NHLF cells, compound 24 hours prior to cisplatin exposure, FIG. 8): failed to protect NHLF cells against cisplatin toxicity; also recorded: failed to protect cells from CDDP-mediated cytotoxicity; HMOX1 induction (HMOX1 [5]): inactive HMOX1 inducers; also recorded: did not induce HMOX1
COC(=O)c1ccc2[nH]c(Nc3nc4ccccc4s3)nc2c1 [Compound 4, 2-(Benzothiazol-2-ylamino)-1H-benzoimidazole-5-carboxylic acid methyl ester] | 1.85 fold induction | 1.74 fold induction | 1.08 fold induction | no demonstrable increase in ROS production | 2.00 fold induction | 0.77 fold induction | 56.15 fold induction | HMOX1 induction in the presence of Keap1 silencing (Keap1): unaffected in their ability to induce HMOX1 in the presence of Keap1 silencing; also recorded: behaves similarly to CoPP induction
CC1OCCC1S(=O)(=O)c1c(-c2ccc(C(F)(F)F)cc2)cnc2ccccc12 (stereo not drawn) [Compound 3, 4-(2-Methyl-tetrahydro-furan-3-sulfonyl)-3-(4-trifluoromethyl-phenyl)-quinoline] | 1.69 fold induction | 1.47 fold induction | 2.71 fold induction | no demonstrable increase in ROS production | 1.37 fold induction | 1.47 fold induction | 45.17 fold induction | –
